Experimental data taken from US9221809B2 (MERCK SHARP & DOHME CORP., priority 2011, dated 2015).

biological target: IRAK4 (Homo sapiens (Human), UniProt Q9NWZ3); assay: IRAK4 kinase activity, IMAP fluorescence polarization assay; format: biochemical; conditions: 100 μM ATP; read-out: IC50
How it was run: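 GST-tagged IRAK4 at 0.5 nM phosphorylates 100 nM fluorescent peptide substrate with 100 μM ATP in pH 7.2 Tris buffer containing MgCl2, DTT and Tween 20, 30 min at 25 °C. Reaction stopped with IMAP binding reagent; phosphorylation read as increased fluorescence polarization.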

Chain of IRAK4 (Q9NWZ3 whole entry): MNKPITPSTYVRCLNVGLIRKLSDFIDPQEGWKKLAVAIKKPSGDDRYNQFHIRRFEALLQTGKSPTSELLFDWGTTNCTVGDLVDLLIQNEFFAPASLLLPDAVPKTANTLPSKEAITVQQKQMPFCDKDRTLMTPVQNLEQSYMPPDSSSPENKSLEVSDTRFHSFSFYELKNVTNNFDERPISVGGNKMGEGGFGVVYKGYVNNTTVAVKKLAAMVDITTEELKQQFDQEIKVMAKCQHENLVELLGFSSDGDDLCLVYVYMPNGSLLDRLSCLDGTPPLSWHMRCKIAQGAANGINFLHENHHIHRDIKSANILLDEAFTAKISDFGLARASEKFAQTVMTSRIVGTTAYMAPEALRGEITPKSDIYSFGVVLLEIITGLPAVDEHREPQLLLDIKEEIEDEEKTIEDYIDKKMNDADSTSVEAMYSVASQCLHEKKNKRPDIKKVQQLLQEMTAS

SMILES | IC50 [nM]
CN(C)c1nc(N[C@@H]2CCCNC2)c(-c2nc3ccccc3s2)c(=O)[nH]1 [Example 289, (R)-5-(benzo[d]thiazol-2-yl)-2-(dimethylamino)-6-(piperidin-3-ylamino)pyrimidin-4(3H)-one] | 74
O=c1[nH]c(N[C@H]2c3ccccc3C[C@@H]2O)nc(N[C@@H]2CCCNC2)c1-c1nc2ccccc2s1 [Example 291, 5-(benzo[d]thiazol-2-yl)-2-((1S,2S)-2-hydroxy-2,3-dihydro-1H-inden-1-ylamino)-6-((R)-piperidin-3-ylamino)pyrimidin-4(3H)-one] | 3000
CN(CCO)c1nc(N[C@@H]2CCCNC2)c(-c2nc3ccccc3s2)c(=O)[nH]1 [Example 292, (R)-5-(benzo[d]thiazol-2-yl)-2-((2-hydroxyethyl)(methyl)amino)-6-(piperidin-3-ylamino)pyrimidin-4(3H)-one] | 190
COC1CCN(c2nc(N[C@@H]3CCCNC3)c(-c3nc4ccccc4s3)c(=O)[nH]2)CC1 [Example 293, (R)-5-(benzo[d]thiazol-2-yl)-2-(4-methoxypiperidin-1-yl)-6-(piperidin-3-ylamino)pyrimidin-4(3H)-one] | 63
CC1CN(c2nc(N[C@@H]3CCCNC3)c(-c3nc4ccccc4s3)c(=O)[nH]2)CC(C)O1 (stereo partly drawn) [Example 294, 5-(benzo[d]thiazol-2-yl)-2-(2,6-dimethylmorpholino)-6-((R)-piperidin-3-ylamino)pyrimidiri-4{3H)-one] | 300
O=c1[nH]c(N2CCCC2)nc(N[C@@H]2CCCNC2)c1-c1nc2ccccc2s1 [Example 295] | 11
CC1CC(C)CN(c2nc(N[C@@H]3CCCNC3)c(-c3nc4ccccc4s3)c(=O)[nH]2)C1 (stereo partly drawn) [Example 296, 5-(1,3-benzothiazol-2-yl)-2-(3,5-dimethylpiperidin-1-yl)-6-[[(3R)-piperidin-3-yl]amino]-3,4-dihydropyrimidin-4-one trifluoroacetic acid] | 570
O=c1[nH]c(N[C@H]2c3ccccc3C[C@H]2O)nc(N[C@@H]2CCCNC2)c1-c1nc2ccccc2s1 [Example 298, 5-(1,3-benzothdazol-2-yl)-2-[[(1S,2R)-2-hydroxy-2,3-dihydro-1H-inden-1-yl]amino]-6-[[(3R)-piperidin-3-yl]amino]pyrimidin-4-ol; formic acid] | 2500

More lines, now with the values ahead:

IC50 [nM] | SMILES
43 | O=c1[nH]c(N2CCOC(CO)C2)nc(N[C@@H]2CCCNC2)c1-c1nc2ccccc2s1 (stereo partly drawn) [Example 285, 5-(1,3-benzothiazol-2-yl)-2-[2-(hydroxymethyl)morpholin-4-yl]-6-[[(3R)-piperidin-3-yl]amino]-3,4-dihydropyrimidin-4-one]
81 | COCC1CN(c2nc(N[C@@H]3CCCNC3)c(-c3nc4ccccc4s3)c(=O)[nH]2)CCO1 (stereo partly drawn) [Example 286, 5-(benzo[d]thiazol-2-yl)-2-(2-(methoxymethyl)morpholino)-6-((R)-piperidin-3-ylamino)pyrimidin-4(3H)-one]
110 | CNC(=O)C1CN(c2nc(N[C@@H]3CCCNC3)c(-c3nc4ccccc4s3)c(=O)[nH]2)CCO1 (stereo partly drawn) [Example 287, 4-(5-(benzo[d]thiazol-2-yl)-6-oxo-4-((R)-piperidin-3-ylamino)-1,6-dihydropyrimidin-2-yl)-N-methylmorpholine-2-carboxamide]
2000 | O=c1[nH]c(N2CCC2)nc(N[C@@H]2CCCNC2)c1-c1nc2ccccc2s1 [Example 288, (R)-2-(azetidin-1-yl)-5-(benzo[d]thiazol-2-yl)-6-(piperidin-3-ylamino)pyrimidin-4(3H)-one]
140 | CC1CCCN(c2nc(N[C@@H]3CCCNC3)c(-c3nc4ccccc4s3)c(=O)[nH]2)C1 (stereo partly drawn) [Example 290, 5-(benzo[d]thiazol-2-yl)-2-(3-methylpiperidin-1-yl)-6-((R)-piperidin-3-ylamino)pyrimidin-4(3H)-one]
69 | CC1CCN(c2nc(N[C@@H]3CCCNC3)c(-c3nc4ccccc4s3)c(=O)[nH]2)CC1 [Example 297, 5-(1,3-benzothiazol-2-yl)-2-(4-methylpiperidin-1-yl)-6-[[(3R)-piperidin-3-yl]amino]-3,4-dihydropyrimidin-4-one]
